# Experiment: Human intestinal absorption in po dosed human
# Settings: in vivo
row,SMILES,Fa [%]
1,CC(C)(C)NC[C@H](O)COc1nsnc1N1CCOCC1 [TIMOLOL],95
2,CCCc1nc2c(C)cc(-c3nc4ccccc4n3C)cc2n1Cc1ccc(-c2ccccc2C(=O)O)cc1,90
3,CCOC(=O)C1=C(C)NC(C)=C(C(=O)OC)C1c1cccc([N+](=O)[O-])c1 (configuration not stated) [NITRENDIPINE],88
4,O=c1[nH]c2ccccc2n1CCCN1CCN(C(c2ccccc2)c2ccccc2)CC1 [OXATOMIDE],100
5,Nc1cc(-c2ccncc2)c[nH]c1=O [INAMRINONE],93
6,Oc1ccc(C(O)C2CCCCN2)cc1O (configuration not stated) [RIMITEROL],48
7,Cc1cccc(Nc2ccncc2S(=O)(=O)NC(=O)NC(C)C)c1 [TORSEMIDE],96
8,Cc1c(OCC(F)(F)F)ccnc1C[S+]([O-])c1nc2ccccc2[nH]1 (configuration not stated) [LANSOPRAZOLE],85
9,NCC1(CC(=O)O)CCCCC1 [GABAPENTIN],59
10,O=C1Cc2cc(CCN3CCN(c4nsc5ccccc45)CC3)c(Cl)cc2N1 [ZIPRASIDONE],60
11,CCCC(CCC)C(=O)[O-].[Na+] [VALPROATE SODIUM],100
12,NCC(=O)O [GLYCINE],100
13,COCC(=O)O[C@]1(CCN(C)CCCc2nc3ccccc3[nH]2)CCc2cc(F)ccc2[C@@H]1C(C)C [MIBEFRADIL],69
14,COc1cccc(C2(O)CCCCC2CN(C)C)c1 (configuration not stated) [TRAMADOL],90
15,O=C(O)c1cc(/N=N/c2ccc(S(=O)(=O)Nc3ccccn3)cc2)ccc1O [SULFASALAZINE],59
16,CC1COc2c(N3CCN(C)CC3)c(F)cc3c(=O)c(C(=O)O)cn1c23 (configuration not stated) [OFLOXACIN],100
17,CCn1cc(C(=O)O)c(=O)c2cc(F)c(N3CCN(C)CC3)cc21 [PEFLOXACIN],100
18,COc1ccc(CCN(C)CCCC(C#N)(c2cc(OC)c(OC)c(OC)c2)C(C)C)cc1OC (configuration not stated) [GALLOPAMIL],100
19,CC(C(=O)O)c1cccc(C(=O)c2ccccc2)c1 (configuration not stated) [KETOPROFEN],92
20,CN(C)CCCN1c2ccccc2CCc2ccccc21 [IMIPRAMINE],100
21,COc1cc(C)c([S+](C)[O-])cc1OC (configuration not stated) [TOLMESOXIDE],98
22,COc1ccc(CCN(C)CCCC(C#N)(c2ccc(OC)c(OC)c2)C(C)C)cc1OC (configuration not stated),97
23,COc1ccc2c3c1O[C@H]1[C@@H](O)CC[C@H]4[C@@H](C2)N(C)CC[C@@]341 [DIHYDROCODEINE],88

row,SMILES,Fa [%]
1,COc1ccc(C(CN(C)C)C2(O)CCCCC2)cc1 (configuration not stated) [VENLAFAXINE],97
2,NC(N)=Nc1nc(CSCCC(N)=NS(N)(=O)=O)cs1 [FAMOTIDINE],28
3,CCN(CC)CCC1(c2ccccc2)CCC(=O)NC1=O (configuration not stated) [PHENGLUTARIMIDE],100
4,Cc1ccsc1C(=CCCN1CCC[C@@H](C(=O)O)C1)c1sccc1C [TIAGABINE],90
5,COc1cccc(C(=O)CCN[C@@H](C)[C@H](O)c2ccccc2)c1 [OXYFEDRINE],84
6,CO[C@H]1C[C@H](O[C@H]2CC[C@]3(C=O)[C@H]4CC[C@]5(C)[C@@H](C6=CC(=O)OC6)CC[C@]5(O)[C@@H]4CC[C@]3(O)C2)O[C@H](C)[C@H]1O [CYMARIN],47
7,Cc1cn([C@H]2C[C@H](N=[N+]=[N-])[C@@H](CO)O2)c(=O)[nH]c1=O [ZIDOVUDINE],100
8,CC1(C)S[C@@H]2[C@H](NC(=O)Cc3ccccc3)C(=O)N2[C@H]1C(=O)O [PENICILLIN G],30
9,Cn1c(=O)c2c(ncn2CCCNCC(O)c2cc(O)cc(O)c2)n(C)c1=O (configuration not stated) [REPROTEROL],60
10,O=C1NS(=O)(=O)c2ccccc21 [SACCHARIN],88
11,Nc1nc2c(ncn2COCCO)c(=O)[nH]1 [ACYCLOVIR],23
12,NC(=O)OCC(COC(N)=O)c1ccccc1 [FELBAMATE],90
13,N[C@@H](Cc1ccc(O)c(O)c1)C(=O)O [LEVODOPA],86
14,CCCC(=O)Nc1ccc(OCC(O)CNC(C)C)c(C(C)=O)c1 (configuration not stated) [ACEBUTOLOL],80
15,CC(C)(C)NCC(O)COc1cccc2c1CC(O)C(O)C2 (configuration not stated) [NADOLOL],57
16,CC1=C(C(=O)O)N2C(=O)[C@@H](NC(=O)[C@H](N)c3ccc(O)cc3)[C@H]2SC1 [CEFADROXIL],100
17,Cc1nccn1CC1CCc2c(c3ccccc3n2C)C1=O (configuration not stated) [ONDANSETRON],100
18,N=C(N)NC(=O)c1nc(Cl)c(N)nc1N [AMILORIDE],50
19,Cc1nnc2n1-c1ccc(Cl)cc1C(c1ccccc1)=NC2 [ALPRAZOLAM],90
20,CN1C(=O)C(O)N=C(c2ccccc2Cl)c2cc(Cl)ccc21 (configuration not stated) [LORMETAZEPAM],100
21,Cn1c(=O)c2[nH]cnc2n(C)c1=O.O [THEOPHYLLINE],100
22,Cc1cccc(C)c1OCC(C)N (configuration not stated) [MEXILETINE],100
23,COP(=O)(OC)OC(c1ccc(Cl)cc1)P(=O)(OC)OC (configuration not stated) [MIFOBATE],81

row,SMILES,Fa [%]
1,CC1(C)S[C@@H]2[C@H](NC(=O)COc3ccccc3)C(=O)N2[C@H]1C(=O)O [PENICILLIN V],59
2,CC(=O)OCC(CCn1cnc2cnc(N)nc21)COC(C)=O [FAMCICLOVIR],77
3,CN1C(C(=O)Nc2ccccn2)=C(O)c2sccc2S1(=O)=O [TENOXICAM],100
4,CC(C)(C)NCC(O)c1cc(O)cc(O)c1 (configuration not stated) [TERBUTALINE],62
5,COc1cccc2c1C(=O)c1c(O)c3c(c(O)c1C2=O)C[C@@](O)(C(=O)CO)C[C@@H]3O[C@H]1C[C@H](N)[C@H](O)[C@H](C)O1 [DOXORUBICIN],12
6,NCCCC(N)(C(=O)O)C(F)F (configuration not stated) [EFLORNITHINE],55
7,CC(C)NCC(O)COc1cccc2[nH]ccc12 (configuration not stated) [PINDOLOL],87
8,N[C@@H](C(=O)N[C@@H]1C(=O)N2C(C(=O)O)=C(CSc3c[nH]nn3)CS[C@H]12)c1ccc(O)cc1 [CEFATRIZINE],75
9,C=CC(N)CCC(=O)O (configuration not stated) [VIGABATRIN],58
10,O=C1NC(=O)C(c2ccccc2)(c2ccccc2)N1 [PHENYTOIN],90
11,N[C@@H](C(=O)N[C@@H]1C(=O)N2C(C(=O)O)=C(Cl)CC[C@H]12)c1ccccc1 [LORACARBEF ANHYDROUS],100
12,OC[C@H]1O[C@@H](O[C@@H]2[C@@H](CO)O[C@](O)(CO)[C@H]2O)[C@H](O)[C@@H](O)[C@H]1O [LACTULOSE],1
13,O=C([O-])c1cc(=O)c2c(OCC(O)COc3cccc4oc(C(=O)[O-])cc(=O)c34)cccc2o1.[Na+].[Na+] [CROMOLYN SODIUM],4
14,CN1C(C(=O)Nc2ccccn2)=C(O)c2ccccc2S1(=O)=O [PIROXICAM],100
15,C[C@H](N)Cc1ccccc1 [DEXTROAMPHETAMINE],90
16,C#C[C@]1(O)CC[C@H]2[C@@H]3CCc4cc(O)ccc4[C@H]3CC[C@@]21C [ETHINYL ESTRADIOL],100
17,CC(C)NCC(O)c1ccc(NS(C)(=O)=O)cc1 (configuration not stated) [SOTALOL],95
18,C[C@H](N[C@@H](CCc1ccccc1)C(=O)O)C(=O)N1CCC[C@H]1C(=O)O [ENALAPRILAT ANHYDROUS],25
19,Cc1ccc(S(=O)(=O)NC(=O)NN2CC3CCCC3C2)cc1 (configuration not stated) [GLICLAZIDE],65
20,CN(C)C(=N)N=C(N)N [METFORMIN],53
21,O=C(C1CCCCC1)N1CC(=O)N2CCc3ccccc3C2C1 (configuration not stated) [PRAZIQUANTEL],100

# Reference: ChEMBL document CHEMBL1157012, “Neural computational prediction of oral drug absorption based on CODES 2D descriptors” (Eur J Med Chem, 2010)
